Assay results published in PMC9381536, “Non-apoptotic cell death induction via sapogenin based supramolecular particles” (Scientific Reports, 2022).

Tests used:
[1] = test system: HCC1937; assay: LDH (lactate dehydrogenase) releasing assay; assay type: cell-based, Human; settings: LDH release and immunoblotting
Method: Figure 5 The cytotoxic activity of analogs depends on particle formation like AG-08. […] The level of released LDH was calculated as fold change relative to vehicle. […] After 24 h, cell viability was measured. […] Cell viability after 24 h was measured. The reported values correspond to mean values ± standard deviation (± s.d) of three experiments. ***p < 0.001, ****p < 0.0001.
LDH-Cytotoxicity Colorimetric Assay Kit II (Biovision) was used to detect LDH releasing. Briefly, HCC1937 were seeded on 96 well plate. After treatment with compounds, cells were centrifuged at 600×g for 10 min. 10 µl supernatant were transferred into clean 96 well plate and added into 100 µl LDH Reaction Mix. Following 30 min incubation at room temperature, 10 µl stop solution were added, and absorbance was measured at 450 nm (Varioscan, Thermo Fisher Scientific, US).

[2] = Cytotoxic activity after freeze–thaw cycle; assay type: cell-based; settings: solution, no change in chemical structure
[3] = test system: HCC1937 cells; assay: Cytotoxicity of 220 nm filtrates; assay type: cell-based
Method: Figure 1 AG-08 mediated cytotoxicity relies on the supramolecular structures. (A) Structure of AG-08. (B) The scanning transmission electron micrograph of 16 µM AG-08 in PBS. Figure is a representative image of stained sample with uranyl acetate (5683 × magnification; scale bar 600 nm). (C) After 3 h incubation of Nile red solution with AG-08 or AG, fluorescence intensity of Nile red was measured. (D) AG-08, Staurosporine (Sta) or vehicle samples prepared in the cell condition medium was filtrated by 220 nm filter and HCC1937 cells were exposed to the filtrates. After 24 h, the viability of cells was measured and represented as a percentage of that of the vehicle control. The error bars represent mean value ± s.d. (n = 3). *p < 0.05, **p < 0.005, ***p < 0.001. (E) Tween 20 (1:40,000) was added to the fresh medium before addition of 8 μM AG-08 or vehicle. Then cell medium was replaced with this fresh medium. Cell viability was detected after 24 h incubation. […] TEXT PRINTED IN THE PICTURE: (F) no label printed: Diameter: 153.2±4.6; polydispersity index: 0.218
To verify that the activity of AG-08 arises from its supramolecular structures, freshly prepared AG-08 solutions were filtered using 220 nm-filters to remove AG-08 supramolecular particles from medium, and the filtrates were analyzed for their cytotoxicity. […] Next, Tween-20 was utilized as a non-ionic detergent to block particle formation, and AG-08-mediated cell death was inhibited as expected (Fig. 1E). […]

[4] = Measurement of particle diameter via Zeta Sizer; assay type: physicochemical; settings: PBS, DLS
Method: AG-08 was dissolved in DMSO a 1000-fold concentrated stock and added into the filtered PBS. Then particle diameter was immediately measured via zeta-sizer (DLS–Particulate Systems). Measurement was repeated in triplicate.

[5] = Nile red staining (particle formation); assay type: physicochemical; settings: Nile red, PBS, 3 h
Method: AG-08 and AG were dissolved in DMSO as a 1000-fold concentrated stock added into the filtered PBS, which contain 2.5 µM Nile red. After 3 h incubation at room temperature, the fluorescence intensity was measured with a microplate reader (550 nm for excitation and 635 nm for the emission wavelength) (Varioscan, Thermo Fisher Scientific, US).

[6] = test system: MCF7; assay: Cytotoxicity analysis (WST-1); assay type: cell-based; settings: Homo sapiens, MCF7, 48 h
Method: (§1) HCC1937 (Human breast cancer line), HeLa (Human […]), A549 (Human lung adenocarcinoma), MRC-5 (Human lung fibroblasts), MCF7 (Human breast cancer cells), A549 (human lung carcinoma) were obtained from American Type Culture Collection and maintained as exponentially growing monolayers by culturing according to the supplier’s instructions. MCF7, HeLa, MRC-5, and A549 cell lines were cultured and routinely passaged in DMEM media containing 10% FBS, while HCC1937 cell lines were propagated in RPMI 1640 containing 10% FBS.
(§2) Following the treatment with compounds or vehicle for 48 h, the 10% WST-1 (Roche, Switzerland) in medium was replaced in each 96 well. After 4 h incubation with WST-1 reagent at 37 °C and 5% CO2, the absorbance was measured using a microplate reader at 440 nm (Varioscan, Thermo Fisher Scientific, US). Graph Pad Prism 5 (San Diego, CA, US.) was used to calculate the IC50, which represents the concentration of compounds that is required for 50% inhibition in comparison to the vehicle-treated controls. The experiments were repeated three times independently.

[7] = test system: HeLa; assay: Cytotoxicity analysis (WST-1); assay type: cell-based; settings: Homo sapiens, 48 h
Method: as §1, §2

[8] = test system: MRC-5; assay: Cytotoxicity analysis (WST-1); assay type: cell-based; settings: Homo sapiens, MRC5, MRC-5 normal cell line, 48 h
Method: as §1, §2

[9] = test system: Calnexin; assay: Calnexin immunofluorescence; assay type: cell-based; settings: AG-08 treated cells
Source text: Figure 3 mRNA microarray analysis was used to identify differentially expressed genes via AG-08 treatment. (A) Heatmap representing the expressions of 193 genes with significant different expression in AG-08 treated cells compared with control. Heatmap was generated by GraphPad Prism version 8 (https://www.graphpad.com/scientific-software/prism/). (B) Protein–protein network analysis was formed via STRING. The thickness of the connecting lines indicates the strength of data support for physical and/or functional associations. (C) Pathway enrichment was determined using GO, KEGG, and Reactome pathway analysis. […] Size of circle represents the significance of enrichment. (D) The protein levels of CHOP were determined via IB. 0.5 µg/ml tunicamycin (Tun) was used as positive control. The experiments were repeated three times independently; with one representative result shown. (E) mRNA level of the CHOP was investigated using quantitative PCR (q-RTPCR). Error bars represent standard error (s.e.). p-values were calculated with respect to vehicle-treated cells by one-way Anova test. (**p < 0.005, ****p < 0.0001). (F) The expression and localization of Calnexin protein were evaluated using immunofluorescence via anti-Calnexin antibody (scale bar 25 µm).
Cells were grown on glass coverslips and treated with AG-08. […] Mounted samples were analyzed by fluorescence microscopy (Olympus IX70, Japan).

[10] = test system: HCC1937; parameters: method as in PMID 33136369; settings: cited from earlier work

For `Cc1ccc(S(=O)(=O)OC2CCC3(C)C4=CCC5(C)C(C6(C)CCC(C(C)(C)O)O6)C(O)CC5(C)C4C=CC3C2(C)C)cc1` (centres unmarked) [AG-08], the “mode of cell death” value [1] was “induced necrotic cell death”, the “cytotoxic activity after one freeze–thaw cycle” value [2] was “lost” and the “cytotoxicity of filtrate after 220 nm filtration” value [3] was “no longer exhibited any cytotoxicity”. For the same compound, the “Diameter of supramolecular structures (hydrodynamic)” value [4] was 153.2 ± 4.6, the polydispersity index [4] was 0.218 and the critical assembly concentration [5] was “approximately 2 µM”. It also gave an IC50 [6] of 3.78 µM, an IC50 [7] of 5.7 µM and an IC50 [8] of 2.58 µM. The “intensity of calnexin staining” value [9] was “significantly increased” and the IC50 [10] was 3.81 µM.
